Data: patent US12391712B2, “Phosphate derivatives of RORgamma modulators and uses thereof” (GENFIT, priority 2019, dated 2025)
Values after ≈ are worked out from the molar mass of the structure shown.

Tests used:
[1] = Solubility in phosphate buffer pH=7.4; format: physicochemical; conditions: for solubility at 24 h: aqueous buffer, thermodynamic from solid; for fold more soluble compared to unphosphated analogue / Solubility ratio: phosphate buffer pH=7.4; for Solubility ratio: phosphate derivative / unphosphated counterpart
Description: General procedure: The test compound was solubilized in phosphate buffer pH=7.4 at a given concentration (test concentration). The mixture was maintained under vigorous stirring for 24 hours at room temperature. In case a insoluble solid appeared, it was removed by centrifugation and the concentration of the test compound in the solution was determined by LC-MS/MS using appropriate methods.

[2] = Metabolic stability (hydrolysis) in bronchoalveolar lavage fluid; format: in vitro ADME, human
Description: General procedure: human bronchoalveolar lavage fluid (hBALf) was purchased from BiolVT. Sample was collected from an individual donor. The only known information provided for the donor were age and gender. Information regarding the health status of the donor was not known.
The hydrolysis of compound 2 was tested at the concentration of 1 μM and 10 μM for 120 minutes (time points 5, 15, 30, 60 and 120 minutes). Quantification of the compound was then carried out by LC-MS/MS using appropriate methods.

[3] = Stability in water at room temperature; format: physicochemical; conditions: 5 mg/mL in water
Description: General procedure: compound 2 (Cpd. 2) according to the invention was dissolved in water in order to obtain a 5 mg/mL concentration. The solution was stirred for 7 days at room temperature. Compound 2 was quantified at different time points (0, 5 days and 7 days) by UPLC/MS using appropriate method.
Results are expressed as percentage of initial signal area for Cpd.2 (time point (1-day).

[4] = phosphate buffer pH=7.4, stirring 24 hours at room temperature, LC-MS/MS

SMILES | solubility at 24 h [1, 4] [µg/mL] | Solubility ratio [1] | other results
Cc1ccc(C(NC(=O)C2(c3ccc4[nH]cc(CCOP(=O)([O-])[O-])c4c3)CC2)c2ccc(C)o2)c(C)c1.[Na+].[Na+] (centres unmarked) [Cpd.2, disodium 2-[5-(1-{[(2,4-dimethylphenyl)(5-methylfuran-2-yl)methyl]carbamoyl}cyclopropyl)-1H-indol-3-yl]ethyl phosphate] | 143000 | 1 588 | fold more soluble compared to unphosphated analogue [1]: at least 1500 fold; Cpd.2 quantification in hBALf, percentage of initial signal area ([2]; 1 μM, time point 0 min): 100%; Cpd.2 quantification in hBALf, percentage of initial signal area ([2]; 1 μM, time point 5 min): 16.46%; Cpd.2 quantification in hBALf, percentage of initial signal area ([2]; 1 μM, time point 15 min): 1.84%; Cpd.2 quantification in hBALf, percentage of initial signal area ([2]; 1 μM, time point 30 min): 0.57%; Cpd.2 quantification in hBALf, percentage of initial signal area ([2]; 1 μM, time point 60 min): 0.28%; Cpd.2 quantification in hBALf, percentage of initial signal area ([2]; 1 μM, time point 120 min): 0.19%; Cpd.2 quantification in hBALf, percentage of initial signal area ([2]; 10 μM, time point 0 min): 100%; Cpd.2 quantification in hBALf, percentage of initial signal area ([2]; 10 μM, time point 5 min): 14.98%; Cpd.2 quantification in hBALf, percentage of initial signal area ([2]; 10 μM, time point 15 min): 4.27%; Cpd.2 quantification in hBALf, percentage of initial signal area ([2]; 10 μM, time point 30 min): 1.38%; Cpd.2 quantification in hBALf, percentage of initial signal area ([2]; 10 μM, time point 60 min): 0.49%; Cpd.2 quantification in hBALf, percentage of initial signal area ([2]; 10 μM, time point 120 min): 0.25%; percentage of initial signal area for Cpd.2 (stability in water) ([3]; time point 0 days): 100%; percentage of initial signal area for Cpd.2 (stability in water) ([3]; time point 5 days): 98%; percentage of initial signal area for Cpd.2 (stability in water) ([3]; time point 7 days): 98%
Cc1ccc(C(NC(=O)C2(c3ccc4[nH]cc(CCOP(=O)([O-])[O-])c4c3)CC2)c2cccc(Cl)c2)c(C)c1.[Na+].[Na+] (centres unmarked) [Cpd.8, disodium 2-[5-(1-{[(3-chlorophenyl)(2,4-dimethylphenyl)methyl]carbamoyl}cyclopropyl)-1H-indol-3-yl]ethyl phosphate] | > 10000 | ≥100 000 | fold more soluble compared to unphosphated analogue [1]: more than 100 000 fold
COc1ccc(C(NC(=O)C2(c3ccc4[nH]cc(CCOP(=O)([O-])[O-])c4c3)CC2)c2ccccc2)c(C)c1.[Na+].[Na+] (centres unmarked) [Cpd.10, disodium 2-[5-(1-{[(4-methoxy-2-methylphenyl)(phenyl)methyl]carbamoyl}cyclopropyl)-1H-indol-3-yl]ethyl phosphate] | > 50400 | ≥13513 | –
Cc1ccc(C(NC(=O)C2(c3ccc4[nH]cc(CCOP(=O)(O)O)c4c3)CC2)c2cccc(C)n2)c(C)c1.[Na].[Na] (centres unmarked) [Cpd.6, disodium {2-[5-(1-{[(2,4-dimethyl phenyl)(6-methylpyridin-2-yl)methyl]carbamoyl}cyclopropyl)-1H-indol-3-yl]ethoxy} phosphonic acid] | > 62700 | ≥12 000 | –
Cc1ccc(C(NC(=O)C2(c3ccc4[nH]cc(CCOP(=O)([O-])[O-])c4c3)CC2)c2ccccc2)c(N2CCOCC2)c1.[Na+].[Na+] (centres unmarked) [Cpd.16, disodium 2-{5-[1-({[4-methyl-2-(morpholin-4-yl)phenyl](phenyl)methyl}carbamoyl)cyclopropyl]-1H-indol-3-yl}ethyl phosphate] | 3640 | 52 057 | –
COc1cc(C)ccc1C(NC(=O)C1(c2ccc3[nH]cc(CCOP(=O)([O-])[O-])c3c2)CC1)c1ccccc1.[Na+].[Na+] (centres unmarked) [Cpd.4, disodium 2-[5-(1-{[(2-methoxy-4-methylphenyl)(phenyl)methyl]carbamoyl}cyclopropyl)-1H-indol-3-yl]ethyl phosphate] | 11200 | 7 000 | –
Cc1ccc(C(NC(=O)C2(c3ccc4[nH]cc(CCOP(=O)([O-])[O-])c4c3)CC2)C2CC2)c(C)c1.[Na+].[Na+] (centres unmarked) [Cpd.14, disodium 2-[5-(1-{[cyclopropyl(2,4-dimethylphenyl)methyl]carbamoyl}cyclopropyl)-1H-indol-3-yl]ethyl phosphate] | > 70800 | ≥5 949 | –

More lines, main results first:

solubility at 24 h [1, 4] [µg/mL] | Solubility ratio [1] | SMILES | other results
78.3 (≈ 182 µM) | – | Cc1noc(C)c1C(NC(=O)C1(c2ccc3[nH]cc(CCO)c3c2)CC1)c1ccccc1 (centres unmarked) [Ex.9d, N-[(dimethyl-1,2-oxazol-4-yl)(phenyl)methyl]-1-[3-(2-hydroxyethyl)-1H-indol-5-yl]cyclopropane-1-carboxamide] | –
11.9 (≈ 29.6 µM) | – | Cc1ccc(C(NC(=O)C2(c3ccc4[nH]cc(CCO)c4c3)CC2)C2CC2)c(C)c1 (centres unmarked) [Ex.7a, N-[cyclopropyl(2,4-dimethylphenyl)methyl]-1-[3-(2-hydroxyethyl)-1H-indol-5-yl]cyclopropane-1-carboxamide] | –
90 (≈ 203 µM) | – | Cc1ccc(C(NC(=O)C2(c3ccc4[nH]cc(CCO)c4c3)CC2)c2ccc(C)o2)c(C)c1 (centres unmarked) [Cpd.A, N-[(2,4-dimethylphenyl)(5-methylfuran-2-yl)methyl]-1-[3-(2-hydroxyethyl)-1H-indol-5-yl]cyclopropane-1-carboxamide, reference compound] | –
0.07 (≈ 0.137 µM) | – | Cc1ccc(C(NC(=O)C2(c3ccc4[nH]cc(CCO)c4c3)CC2)c2ccccc2)c(N2CCOCC2)c1 (centres unmarked) [Ex.8a, 1-[3-(2-hydroxyethyl)-1H-indol-5-yl]-N-{[4-methyl-2-(morpholin-4-yl)phenyl](phenyl)methyl}cyclopropane-1-carboxamide] | –
0.1 (≈ 0.211 µM) | – | Cc1ccc(C(NC(=O)C2(c3ccc4[nH]cc(CCO)c4c3)CC2)c2cccc(Cl)c2)c(C)c1 (centres unmarked) [Ex.4a, N-[(3-chlorophenyl)(2,4-dimethylphenyl)methyl]-1-[3-(2-hydroxyethyl)-1H-indol-5-yl]cyclopropane-1-carboxamide] | –
5.2 (≈ 11.5 µM) | – | Cc1ccc(C(NC(=O)C2(c3ccc4[nH]cc(CCO)c4c3)CC2)c2cccc(C)n2)c(C)c1 (centres unmarked) [Ex.3a, N-[(2,4-dimethylphenyl)(6-methylpyridin-2-yl)methyl]-1-[3-(2-hydroxyethyl)-1H-indol-5-yl]cyclo-propane-1-carboxamide] | –
3.7 (≈ 8.14 µM) | – | COc1ccc(C(NC(=O)C2(c3ccc4[nH]cc(CCO)c4c3)CC2)c2ccccc2)c(C)c1 (centres unmarked) [Ex.5a, 1-[3-(2-hydroxyethyl)-1H-indol-5-yl]-N-[(4-methoxy-2-methylphenyl)(phenyl)methyl]cyclopropane-1-carboxamide] | –
1.6 (≈ 3.52 µM) | – | COc1cc(C)ccc1C(NC(=O)C1(c2ccc3[nH]cc(CCO)c3c2)CC1)c1ccccc1 (centres unmarked) [Ex.2a, 1-[3-(2-hydroxyethyl)-1H-indol-5-yl]-N-[(2-methoxy-4-methylphenyl)(phenyl)methyl]cyclopropane-1-carboxamide] | –
– | ≥911 | Cc1noc(C)c1C(NC(=O)C1(c2ccc3[nH]cc(CCOP(=O)([O-])[O-])c3c2)CC1)c1ccccc1.[Na+].[Na+] (centres unmarked) [Cpd.18, disodium 2-[5-(1-{[(dimethyl-1,2-oxazol-4-yl) (phenyl)methyl]carbamoyl}cyclopropyl)-1H-indol-3-yl] ethyl phosphate] | Solubility [1, 4]: >71350 µg/mL
